Results as given in patent US12630594B2, “Allergy antigen and epitope for same” (HOYU CO., LTD., priority 2017, dated 2026).

Tests used:
[1] = system: IgE antibody present in the serum of a fish-allergic patient; experiment: Epitope mapping (1): peptide array of overlapping 15-amino-acid peptides; type: binding, human; conditions: average of 5 patients / average of 4 non-fish-allergic subjects at least 1.5, Mann-Whitney U test
Method: Epitope mapping was carried out using a library of overlapping peptides (length: 15 amino acids) corresponding to the amino acid sequences identified as allergy components of fish and the amino acid sequences of known fish allergy antigens aldolase, β-enolase, and glyceraldehyde-3-phosphate dehydrogenase (Non Patent Literature 2-4). Specifically, the library of overlapping peptides was prepared on the basis of the amino acid sequences of SEQ ID NO: 2 for alpha-actinin-3, SEQ ID NO: 5 for EEF1A2 binding protein-like, SEQ ID NO: 10 for alpha-1,4-glucan phosphorylase, SEQ ID NO: 19 for elongation factor 2, SEQ ID NO: 26 for heat shock cognate 70 kDa protein, SEQ ID NO: 33 for serotransferrin, SEQ ID NO: 43 for myosin binding protein H-like, SEQ ID NO: 56 for desmin (fragment), SEQ ID NO: 61 for capping protein (actin filament) muscle Z-line beta, SEQ ID NO: 70 for myosin heavy chain, fast skeletal muscle-like, SEQ ID NO: 110 for glycogen phosphorylase, muscle form-like, SEQ ID NO: 121 for myosin-binding protein C, fast-type-like, SEQ ID NO: 138 for ATP synthase subunit beta, mitochondrial, SEQ ID NO: 144 for L-lactate dehydrogenase A chain-like, SEQ ID NO: 445 for aldolase, SEQ ID NO: 446 for β-enolase, and SEQ ID NO: 447 for glyceraldehyde-3-phosphate dehydrogenase.
The peptides to be synthesized were shifted by 10 amino acids.
For preparation of peptide arrays, the Intavis CelluSpots™ technique was used. Specifically, the peptide arrays were prepared by the following procedure: (1) synthesizing peptides of interest on amino-modified cellulose disks using an automated chemical synthesis apparatus (Intavis MultiPep RS), (2) dissolving the amino-modified cellulose disks to obtain a cellulose-bound peptide solution, and (3) spotting the cellulose-bound peptides onto coated glass slides. The details of each procedure are as described below.
The presence or absence of binding, to each peptide fragment, of an IgE antibody present in the serum of a fish-allergic patient was measured through antigen-antibody reaction using the peptide arrays. The measurement was carried out according to the following procedure. • (1) The peptides were shaken at room temperature for 1 hour in PBST. • (2) The peptide arrays were shaken at overnight at room temperature in 5% serum/PBST. • (3) The peptide arrays were washed with a PBST solution (a PBS buffer containing 0.1% Tween 20 nonionic surfactant) for 5 minutes (×3). • (4) Anti-human IgE antibody-HRP(1:5,000, PBST) was added thereto, and the peptide arrays were shaken at room temperature for 1 hour. • (5) The peptide arrays were washed with a PBST solution for 5 minutes (×3). • (6) Pierce ECL Plus Western Blotting Substrate (produced by Thermo Fisher Scientific) was added thereto, and the peptide arrays were shaken at room temperature for 5 minutes. • (7) The chemiluminescence of the peptides treated as described above in (1) to • (6) was measured using Amersham Imager 600.
Chemiluminescence intensity in images obtained by the measurement described above in (7) was converted into a numeric value using ImageQuant TL (GE Healthcare). The average value of numeric values determined from images obtained from results about the serum of 5 patients was divided by the average value of numeric values determined from images obtained from results about the serum of 4 non-fish-allergic subjects. It was determined that a peptide having a calculated value (average value of the patient group/average value of the non-fish-allergic subject group) of at least 1.5 and a significant difference of […] in the Mann-Whitney U test was a peptide bound to an IgE antibody in a patient-specific manner.

[2] = system: IgE antibodies from patients; experiment: Epitope mapping (2): overlapping 10-amino-acid peptide fragments shifted by one amino acid; type: binding, human; conditions: positions numbered within the 15-amino-acid epitope; serum of 5 patients
Source text: On the basis of the sequences (SEQ ID NOs: 150-154 for alpha-actinin-3, SEQ ID NO: 155 for EEF1A2 binding protein-like, SEQ ID NOs: 156 and 157 for alpha-1,4-glucan phosphorylase, SEQ ID NOs: 158 and 159 for elongation factor 2, SEQ ID NOs: 160-162 for heat shock cognate 70 kDa protein, SEQ ID NOs: 163-167 for serotransferrin, SEQ ID NOs: 168-171 for myosin binding protein H-like, SEQ ID NOs: 172-174 for desmin (fragment), SEQ ID NOs: 175-178 for capping protein (actin filament) muscle Z-line beta, SEQ ID NOs: 179-185 for myosin heavy chain, fast skeletal muscle-like, SEQ ID NO: 186 for glycogen phosphorylase, muscle form-like, SEQ ID NOs: 187-196 for myosin-binding protein C, fast-type-like, SEQ ID NO: 197 for ATP synthase subunit beta, mitochondrial, SEQ ID NO: 198 for L-lactate dehydrogenase A chain-like, SEQ ID NO: 199 for aldolase, SEQ ID NOs: 200-202 for β-enolase, and SEQ ID NOs: 203 and 204 for glyceraldehyde-3-phosphate dehydrogenase) of the peptides bound to an IgE antibody in serum in a patient-specific manner as described above in (A), a library of overlapping peptide fragments (length: 10 amino acids) was prepared using the sequences of the peptides and sequences in which sequences were added so as to flank each peptide in the amino acid sequences of allergen components (SEQ ID NO: 2 for alpha-actinin-3, SEQ ID NO: 5 for EEF1A2 binding protein-like, SEQ ID NO: 10 for alpha-1,4-glucan phosphorylase, SEQ ID NO: 19 for elongation factor 2, SEQ ID NO: 26 for heat shock cognate 70 kDa protein, SEQ ID NO: 33 for serotransferrin, SEQ ID NO: 43 for myosin binding protein H-like, SEQ ID NO: 56 for desmin (fragment), SEQ ID NO: 61 for capping protein (actin filament) muscle Z-line beta, SEQ ID NO: 70 for myosin heavy chain, fast skeletal muscle-like, SEQ ID NO: 110 for glycogen phosphorylase, muscle form-like, SEQ ID NO: 121 for myosin-binding protein C, fast-type-like, SEQ ID NO: 138 for ATP synthase subunit beta, mitochondrial, SEQ ID NO: 144 for L-lactate dehydrogenase A chain-like, SEQ ID NO: 445 for aldolase, SEQ ID NO: 446 for β-enolase, and SEQ ID NO: 447 for glyceraldehyde-3-phosphate dehydrogenase) comprising the sequences of the peptide. Epitope mapping was carried out using the library.
The peptides to be synthesized were shifted by one amino acid.
The library was prepared by the same procedure as described above in (A), and the presence or absence of binding of an IgE antibody present in the serum of a patient and a non-fish-allergic subject to each peptide fragment was measured by the same technique as described above. Amino acids at positions where the binding activity against IgE antibodies from patients were lost or decreased in the peptides shifted by one amino acid while binding activity against IgE antibodies from non-fish-allergic subjects arose were confirmed as amino acids adversely affecting the specificity of binding to IgE antibodies.
Chemiluminescence intensity in images obtained by measurement was converted into a numeric value in the same manner as in (A) using ImageQuant TL (GE Healthcare). […]

[3] = system: IgE antibodies from patients; experiment: Epitope mapping (3): alanine scanning; set-up: species or system human; conditions: positions numbered within the region important for binding; no influence on IgE binding when substituted by alanine
Method: From the amino acid sequences identified above in (A), a library of peptide fragments in which N-terminal amino acids were substituted one by one by alanine according to a technique called alanine scanning (Non Patent Literature 5) was prepared by the same technique as described above. The presence or absence of binding of an IgE antibody present in the serum of a patient and a non-fish-allergic subject to each peptide fragment was measured by the same technique as described above. Amino acids at positions where the binding activity against IgE antibodies from patients were lost or decreased by the substitution by alanine while binding activity against IgE antibodies from non-fish-allergic subjects arose were confirmed as amino acids important for exertion of original antigenicity, or amino acids influencing exertion of original antigenicity.
Chemiluminescence intensity in images obtained by measurement was converted into a numeric value in the same manner as in (A) using ImageQuant TL (GE Healthcare). When values obtained using the sequences (SEQ ID NOs: 150-204) that were of the peptides confirmed to bind to an IgE antibody in a patient specific manner from the images obtained from results about the serum of 5 patients and served as the basis of overlapping were defined as 100%, it was determined that: a peptide having a value of less than 20% had no binding activity against IgE antibodies; a peptide having a value of 20% or more and less than 50% had binding activity, albeit poor, against IgE antibodies; a peptide having a value of 50% or more and less than 70% had binding activity, albeit somewhat poor, against IgE antibodies; a peptide having a value of 70% or more and less than 90% had equivalent binding activity against IgE antibodies; and a peptide having a value of 90% or more had almost equivalent or good binding activity against IgE antibodies and was thus a peptide had remaining binding activity against IgE antibodies.
By this analysis, common sequences important for exertion of original antigenicity were found in regions important for binding to IgE antibodies from patients, in the sequences serving as the basis of overlapping.

[4] = system: IgE antibody in the serum of a fish-allergic patient; experiment: Immunoblotting of two-dimensional electrophoresis patterns of fish meat proteins with patient serum; type: binding, human
Method: Proteins contained in fish were analyzed by the aforementioned technique to identify antigens of an allergy to fish. To be specific, proteins were extracted from fish meat and subjected to two-dimensional electrophoresis under the conditions described below.
The electrophoresis in the first dimension was isoelectric focusing, which was performed using isoelectric focusing gels with a gel-strip length of 5 to 10 cm and a gel pH range of 3 to 10. The pH gradient of the gels in the direction of electrophoresis was as follows: with the total gel-strip length being taken as 1, the gel-strip length up to pH 5 was “a=0.15 to 0.3”, the gel-strip length from pH 5 to 7 was “b=0.4 to 0.7”, and the gel-strip length above pH 7 was “c=0.15 to 0.3”. More specifically, the isoelectric focusing was performed using the IPG gels, Immobiline Drystrip (pH3-10NL), produced by GE Healthcare Bio-Sciences Corporation (hereinafter abbreviated as “GE”). The electrophoresis system used was IPGphor produced by GE. The maximum current of the electrophoresis system was limited to 75 μA per gel strip. The voltage program adopted to perform the first-dimensional isoelectric focusing was as follows: (1) a constant voltage step was performed at a constant voltage of 300 V until the volt-hours reached 750 Vhr (the current variation width during electrophoresis for 30 minutes before the end of this step was 5 μA); (2) the voltage was increased gradually to 1000 V for 300 Vhr; (3) the voltage was further increased gradually to 5000 V for 4500 Vhr; and then (4) the voltage was held at a constant voltage of 5000 V until the total Vhr reached 12000.
The electrophoresis in the second dimension was SDS-PAGE, which was performed using polyacrylamide gels whose gel concentration at the distal end in the direction of electrophoresis was set to 3 to 6% and whose gel concentration at the proximal end was set to a higher value than that at the distal end. More specifically, the SDS-PAGE was performed using NuPAGE 4-12% Bris-Tris Gels (IPG well, Mini, 1 mm) produced by Life Technologies. The electrophoresis system used was XCell SureLock Mini-Cell produced by Life Technologies. The electrophoresis was run at a constant voltage of 200 V for about 45 minutes using an electrophoresis buffer composed of 50 mM MOPS, 50 mM Tris base, 0.1% (w/v) SDS and 1 mM EDTA.
Identification of antigens by immunoblotting was carried out by taking all the steps up to the step of “Second-dimensional SDS-PAGE” as described above in Example 1, followed by the steps of “Transfer to membrane”, “Immunoblotting” and “Analysis” as described below.
To be specific, proteins in the second-dimensional electrophoresis gels were transferred to a membrane (PVDF membrane) according to the following procedure. • (1) The PVDF membrane was immersed in 100% methanol followed by milliQ water, and then moved into the transfer buffer to hydrophilize the PVDF membrane. • (2) After sponge, filter paper, the second-dimensional electrophoresis gels treated by second-dimensional SDS-PAGE, the hydrophilized PVDF membrane, filter paper, and sponge were put in place in this order, the transfer system was energized at a constant voltage of 30 V for one hour. Immunoblotting
Immunoblotting of the membrane was carried out using, as a primary antibody, a serum sample from patient 1 with a fish allergy or a serum sample from a non-fish-allergic subject. This fish-allergic patient 1 was a patient diagnosed with immediate-type allergy to fish. […]

Substance	IgE antibody binding in a patient-specific manner [1]	Positions of amino acids of region important for binding in epitope [2]	Non-binding-influencing amino acid in region important for binding [3]	spots detected by immunoblotting, different from spots with serum of non-fish-allergic subject ([4]; proteins contained in salmon meat, serum from fish-allergic patient 3 (FIG. 1B right))	specific binding to IgE antibodies from fish-allergic patients ([4]; spots in two-dimensional electrophoresis gel of proteins in fish, patients diagnosed with immediate-type allergy)
6 (LDNRLYYMVAEHDSS; epitope) [compound 6]	bind in a patient-specific manner	1-11	8		
8 (DRFKVFADYEAYIKS; epitope) [compound 8]	bind in a patient-specific manner	2-9			
37 (GGYIQAVLDRNLCEN; epitope) [compound 37]	bind in a patient-specific manner		3		
49 (VLAGEPVGSRSKVTV; epitope) [compound 49]	bind in a patient-specific manner	5-13	6		
50 (SYGRALQASALKAWG; epitope) [compound 50]	bind in a patient-specific manner				
54 (YMVYMFKYDSTHGRF; epitope) [compound 54]	bind in a patient-specific manner	1-15			
55 (PASYDAIKKVVKAAA; epitope) [compound 55]	bind in a patient-specific manner		5		
ATP synthase subunit beta, mitochondrial [Spot 13]				newly detected	specific binding to IgE antibodies
